The structures appear in SMILES notation. Counter-ions that a name gives are not always drawn. Like-named read-outs stand apart in the source and are kept apart here.

For data set [1] the following is noted: in 1N sulfuric acid; cited from earlier work.
For data set [2] the following is noted: cited from earlier work.
The conditions of data set [3]: background statement; cited from earlier work.
A short description of data set [4]: Solubility in water / aqueous solution. As to conditions: solubility of the reactive form of the dye; grade in words.
In data set [5] the test system is microsomal glucose-6-phosphatase. As to conditions: cited from earlier work.
The nature of data set [6]: Comparison of spectral properties of reactive dyes, Table 1. The data set is classed as physicochemical. As to conditions: for Quantum Yield: in aqueous solution, grade in words. From the text: A number of dyes have been proposed in the literature that can be excited and detected at wavelengths less than 500 nm. Several chemically reactive fluorophores that can be excited in the near ultraviolet and short wavelength visible region of the spectrum have been described. […] These proposed tracers are derived from naphthalene derivatives such as 5-dimethylaminonaphthalene-1-sulfonic acid (Dansyl) [Weber, Biochem. J. 41:145 (1952); Rinderknecht, Experientin 16:430 (1960)], 3-(isothiocyanato)naphthalene-1,5-disulfonic acid [Braunitzer, et al., Hoppe-Seyler's Z. Physiol. […] Chem. 358:505 (1977)], pyrene derivatives such as pyrene-1-butyric acid (PBA) [Malencik & Anderson, Biochemistry 11:3022 (1972)], 8-isothiocyanatopyrene-1,3,6-trisulfonic acid (IPTS) [Braunitzer,et al., Hoppe-Seyler's Z. Physiol. Chem. 354:1536 (1973)] and 8-hydroxypyrene-1,3,6-trisulfonyl chloride [Wolfbeis, Fresenies Z. Anal. Chem. 320:271 (1985)], stilbene derivatives such as 4-acetamido-4'-isothiocyanatostilbene-2,2'-disulfonic acid (SITS) [Cornelisse & Ploem, J. Histochem. Cytochem. 24:72 (1976)], and coumarin dyes such as 3-carboxy-7-hydroxycoumarin [Baker & Collis, J. Chem. Soc. 1949, S 12 (1949)], 7-hydroxy-4-methylumbelliferone-3-acetic acid (4-MUA) [Khalfan, et al., Biochem. J. 209:265 (1983)], 7-amino-4-methylcoumarin-3-acetic acid (AMCA) [Khalfan, et al., Histochem. J. 18:497 (1986)] and 7-diethylaminocoumarin [Staines, et al. (1988)].

Data set [7] concerns anion transport systems in red blood cells. As to conditions: cited from earlier work.
For data set [8] the following is noted: physiological range (pH 6 to 8); cited from earlier work.
Data set [9] can be described thus: Emission spectra comparison of equimolar solutions / normalized spectra (FIG. 2, FIG. 3). The class given is physicochemical. From the text: The narrower spectral width makes the dyes particularly valuable for applications requiring multiple dyes such as flow cytometry, DNA sequencing [Smith, et at. (1985)] and multiparameter microscopy. The utility of the objects of this invention in multiparameter applications is illustrated in FIG. 3. […] The extinction coefficients for the pyrenyloxy sulfonic acid dyes are generally greater than 25,000 cm^-1 M^-1 and the quantum yields of the dyes in aqueous solution are generally above 0.5. In FIG. 4, the emission intensities of bovine serum albumin (BSA) conjugates of the pyrene isothiocyanate IPTS are compared to the BSA conjugates of compound 9. […] The subject dyes show only minor spectral shifts and intensity changes between water, methanol, and ethanol and have absorption and emission spectra that lack significant pH dependence between pH 6 and 10, as illustrated in FIG. 5. Table 4 lists the approximate spectral properties of a number of the dyes and intermediates that are the subject of this invention.

A short description of data set [10]: Quantum yield relative to quinine sulfate. As to conditions: in 50 mM phosphate buffer at pH 8.0. The data set is classed as physicochemical. From the text: An estimate of the quantum yield of the dyes relative to quinine sulfate (quantum yield=0.55 in 1N sulfuric acid) was obtained by integrating the emission spectrum of the dye excited at the same wavelength and optical density as the standard.

Data set [11] can be described thus: Spectral properties (absorption/emission) of new pyrenyloxy sulfonic acid dyes, Table 4. The data set is classed as physicochemical. As to conditions: 50 mM aqueous potassium phosphate buffer at pH 8.0. On the procedure:
Stock solutions were prepared by accurately weighing and dissolving 5-10 mg samples of the compounds in 2.000 ml water. A 10 μl aliquot of the stock solution was diluted into 2.00 ml of 50 mM potassium phosphate buffer at pH 8.0. Absorbance solutions were prepared by further diluting 200 μl of the diluted stock solution to 2.000 ml with 50 mM potassium phosphate buffer at pH 8.0. Absorption data was collected on an IBM Model 9420 UV/Visible Spectrophotometer and extinction coefficients were determined by standard Beer's Law calculations.
Uncorrected fluorescence data was obtained on a Perkin-Elmer Model 650-40 Fluorescence Spectrophotometer equipped with a Perkin-Elmer/Hitachi 057 X-Y Recorder using a ten- to twentyfold dilution of the absorbance solutions. Fluorescence of the pyrenyloxy sulfonic acid dyes was determined for the reactive dyes and for their conjugates with model compounds by dissolving the dye at a concentration above 1×10^-8M in an appropriate solvent such as water, methanol, ethanol, or dimethylsulfoxide and measurement of the fluorescence in a suitable instrument, such as a fluorescence spectrometer or fluorescence microscope or flow cytometer. Fluorescence could also be observed for the dyes in solution by visual inspection with illumination by a suitable source that emits light at wavelengths of less than 420 nm.

Data set [12] relates to Swiss-Webster mice. As to conditions: mouse, in vivo; cited from earlier work.
The mark [13] stands for this setting: full bandwidth at half peak height.
[14] abbreviates: percent of maximum emission at 514 nm.

With `C=C[C@H]1C[N@@]2CC[C@H]1C[C@H]2[C@H](O)c1ccnc2ccc(OC)cc12` [quinine sulfate], the “quantum yield of standard” value in data set [1] was 0.55.

`O=C1OC2(c3ccc(O)cc3Oc3cc(O)ccc32)c2ccccc21` [fluorescein]: the extinction coefficient in data set [2] (at absorbance maximum) was 75,000 cm^-1 M^-1. Further, the emission onset entry in data set [2] (beginning of visible emission) is “approximately 480 nm”.

Take `CC(=O)Nc1ccc(/C=C/c2ccc(N=C=S)cc2S(=O)(=O)O)c(S(=O)(=O)O)c1` [SITS, 4-acetamido-4'-isothiocyanatostilbene-2,2'-disulfonic acid]: in [3], the “aqueous solubility / lipophilicity” value is “high water solubility”. In data set [4], the “Water Solubility” value is given as “high”. Further, the “effect on microsomal glucose-6-phosphatase” value in data set [5] was “inhibitory effect”. Further, in data set [6], the “% Emission at 514 nm” value is recorded as 19, the “Abs Max” value turned out to be 337, the “Em. Max.” value is given as 438 and the “Emission Bandwidth” value stood at 82. Further, in data set [6], the “Emission Bandwidth [cm^-1]” value stood at 4825, the ε was determined as 37400 M⁻¹ cm⁻¹ and the “Quantum Yield” value is given as “low”. Besides, in data set [7], the “effect on anion transport systems in red blood cells” value is “inhibitory effect”.

Regarding `O=S(=O)(Cl)c1cc(O)c2ccc3c(S(=O)(=O)Cl)cc(S(=O)(=O)Cl)c4ccc1c2c34` [hydroxypyrenetrisulfonyl chloride, 8-hydroxypyrene-1,3,6-trisulfonyl chloride], the “sensitivity to solution pH” value in data set [8] was “high sensitivity to solution pH”.

Turning to `Cc1c(CC(=O)O)c(=O)oc2cc(O)ccc12` [Compound 4-MUA, 7-hydroxy-4-methylumbelliferone-3-acetic acid], the “Water Solubility” value in [4] was “low”. Besides, in [8], the “sensitivity to solution pH” value was “high sensitivity to solution pH”. For the same molecule, in data set [6], the “Em. Max.” value is 454 nm and the “Quantum Yield” value is listed as “med”. The molecule also yielded a ε in data set [6] (at first maximum) of 19100 M⁻¹ cm⁻¹. Further, the “Abs Max” value in data set [6] (first maximum) turned out to be 360 nm. Further, in [6] (setting [13]), the “Emission Bandwidth” value is reported as 58 nm and the “Emission Bandwidth [cm^-1]” value was found to be 2668 cm⁻¹. In addition, the “% Emission at 514 nm” value in data set [6] (setting [14]) is recorded as 20 % of max.

Take `NNC(=O)COc1cc(S(=O)(=O)[O-])c2ccc3c(S(=O)(=O)[O-])cc(S(=O)(=O)[O-])c4ccc1c2c43.[Na+].[Na+].[Na+]` [Compound 12, 1,3,6-Trisulfo-8-pyrenyloxyacethydrazide, trisodium salt]: the “Water Solubility” value in [4] is given as “high”. Moreover, in data set [9], the “resolution of emission from fluorescein and Lucifer Yellow CH” value is on record as “emission which is well resolved from the emission bands of both these widely used dyes”. The figures for the Quantum Yield in data set [10] and in data set [6] were 0.54 and “high”, respectively. Also, the ε is 28000 M⁻¹ cm⁻¹ in [6] (at first maximum) and 23300 M⁻¹ cm⁻¹ in [6] (at second maximum). Besides, the “Abs Max” value in data set [6] (first maximum) is on record as 399 nm; in data set [6] (second maximum), 376 nm; in [11] (first (longer-wavelength) maximum), 399 nm; in data set [11] (second (shorter-wavelength) maximum), 377 nm. Further, the “Emission Bandwidth” value in data set [6] (setting [13]) worked out at 50 nm. The “Emission Bandwidth [cm^-1]” value in [6] (setting [13]) amounted to 2168 cm⁻¹. For the same molecule, the “% Emission at 514 nm” value in data set [6] (setting [14]) was 3.8 % of max. Further, in data set [11], the “Emission Band-width” value is reported as 50 nm. In addition, in [11], the “Emission at 514 nm” value is 3.9 % of max.

On to `O=S(=O)([O-])c1cc(O)c2ccc3c(S(=O)(=O)[O-])cc(S(=O)(=O)[O-])c4ccc1c2c34.[Na+].[Na+].[Na+]` [8-hydroxypyrene-1,3,6-trisulfonic acid, trisodium salt], for which the “toxicity to Swiss-Webster mice” value in data set [12] is “nontoxic to Swiss-Webster mice”.

In the case of `O=S(=O)(O)c1cc(O)c2ccc3c(S(=O)(=O)O)cc(S(=O)(=O)O)c4ccc1c2c34` [8-hydroxypyrene-1,3,6-trisulfonic acid], the LD50 entry in [12] was “exceeding 1000 mg/kg”.

Source of the values: US5132432A, “Chemically reactive pyrenyloxy sulfonic acid dyes” (Molecular Probes, Inc., priority 1989, dated 1992).
